{"source": "paper PMC12396409", "about": "“Screening and hit evaluation of a microbial metabolite library against the pathogenic Plasmodium falciparum and Toxoplasma gondii parasites” (International Journal for Parasitology: Drugs and Drug …, 2025)", "key": {"[1]": {"test_system": "P. falciparum 3D7 parasites", "experiment": "P. falciparum growth inhibition assay, 1-cycle (72 h treatment), SYBR DNA staining (library screen at 2 μg/mL and dose-response)", "assay_type": "cell-based, Plasmodium falciparum", "conditions": "for activity at 2 µg/mL: Plasmodium falciparum, 3D7"}, "[2]": {"test_system": "P. falciparum", "conditions": "cited from earlier work"}, "[3]": {"test_system": "T. gondii RH strain (RH-Tub-eYFP) tachyzoites", "experiment": "microbe, parasite or virus in culture", "assay_type": "cell-based, Toxoplasma gondii", "conditions": "72 h, 72 h; for percent parasite growth at 2 µg/mL: Toxoplasma gondii"}, "[4]": {"test_system": "P. falciparum 3D7 parasites", "experiment": "P. falciparum growth inhibition assay, 2-cycle (120 h treatment), delayed-death screen and dose-response", "assay_type": "cell-based, Plasmodium falciparum", "conditions": "for activity at 2 µg/mL: Plasmodium falciparum, 3D7"}, "[5]": {"conditions": "48–72 h, ref Wilson et al., 2013, read-out: IC50 at 48–72 h"}, "[6]": {"conditions": "T. gondii RH, library screen at 2 μg/mL, % growth, replicate 1"}, "[7]": {"conditions": "T. gondii RH, library screen at 2 μg/mL, % growth, replicate 2"}, "[8]": {"conditions": "P. falciparum 3D7, 72 h, library screen at 2 μg/mL, % growth, replicate 1"}, "[9]": {"conditions": "P. falciparum 3D7, 72 h, library screen at 2 μg/mL, % growth, replicate 2"}, "[10]": {"conditions": "P. falciparum 3D7, 120 h, library screen at 2 μg/mL, % growth, replicate 1"}, "[11]": {"conditions": "P. falciparum 3D7, 120 h, library screen at 2 μg/mL, % growth, replicate 2"}}, "note": "Like-named read-outs stand apart in the source and are kept apart here.", "data": [{"molecule": "Micrococcin P1", "values": [{"measurement": "IC50", "setting": "[1]; 3D7, 72 h treatment, mean ± S.D., n ≥ 3, read-out: IC50 (μM), P. falciparum", "value": "0.02 ± 0.004", "unit": "µM"}, {"measurement": "IC50", "setting": "[1]; 72 h treatment, read-out: IC50, P. falciparum", "value": "< 0.2", "unit": "µM"}, {"measurement": "IC50", "setting": "[2]; within 48 h, ref Rogers et al., 1998, read-out: IC50 in P. falciparum within 48 h", "value": 35, "unit": "nM"}]}, {"molecule": "CCC[C@@H]1C[C@@H](C(=O)N[C@@H]([C@H]2O[C@H](SC)[C@H](O)[C@@H](O)[C@H]2O)[C@H](C)Cl)N(C)C1", "note": "[clindamycin]", "values": [{"measurement": "IC50", "setting": "[2]; [5]", "value": "≥ 5000", "unit": "nM"}, {"measurement": "IC50 at more than 96 h", "setting": "[2]; ref Wilson et al., 2013", "value": "low nanomolar range"}]}, {"molecule": "COCC(=O)N[C@@H](C(=O)N1NCCC[C@H]1C(=O)N[C@@H](Cc1ccccc1)[C@@H](O)[C@H](C)C(=O)N[C@H]1CCN(C(N)=O)C1=O)[C@H](O)C(C)C", "note": "[Padanamide A]", "values": [{"measurement": "activity in the screen against P. falciparum", "setting": "[1]; 2 μg/mL, 72 h, active = ≥80 % growth inhibition", "value": "active against P. falciparum"}, {"measurement": "IC50", "setting": "[2]; another study, ref Cheng et al., 2015, read-out: IC50 in P. falciparum", "value": "~200", "unit": "nM"}]}, {"molecule": "spiramycin", "values": [{"measurement": "IC50", "setting": "[2]; [5]", "value": "≥ 5000", "unit": "nM"}, {"measurement": "IC50 at more than 96 h", "setting": "[2]; ref Wilson et al., 2013", "value": "low nanomolar range"}]}, {"molecule": "[N-]=[N+]=NCC(=O)N[C@H](CO)[C@H](O)c1ccc([N+](=O)[O-])cc1", "note": "[Azidamfenicol]", "values": [{"measurement": "percent parasite growth at 2 µg/mL", "setting": "[3]; library screen at 2 μg/mL, % growth, replicate 1, read-out: Tg_72h_%Growth_Rep1", "value": 129, "unit": "%"}, {"measurement": "percent parasite growth at 2 µg/mL", "setting": "[3]; library screen at 2 μg/mL, % growth, replicate 2, read-out: Tg_72h_%Growth_Rep2", "value": 103, "unit": "%"}, {"measurement": "activity at 2 µg/mL", "setting": "[1]; library screen at 2 μg/mL, 72 h, % growth, replicate 1, read-out: Pf_72h_%Growth_Rep1", "value": 82.7, "unit": "%"}, {"measurement": "activity at 2 µg/mL", "setting": "[1]; library screen at 2 μg/mL, 72 h, % growth, replicate 2, read-out: Pf_72h_%Growth_Rep2", "value": 84.9, "unit": "%"}, {"measurement": "activity at 2 µg/mL", "setting": "[4]; library screen at 2 μg/mL, 120 h, % growth, replicate 1, read-out: Pf_120h_%Growth_Rep1", "value": 64.6, "unit": "%"}, {"measurement": "activity at 2 µg/mL", "setting": "[4]; library screen at 2 μg/mL, 120 h, % growth, replicate 2, read-out: Pf_120h_%Growth_Rep2", "value": 95.3, "unit": "%"}]}, {"molecule": "CC(=O)C1C(C)=CC(=O)c2c1c(-c1c3c(c(O)c4c(O)cccc14)C(=O)CC(C)(O)C3C(C)=O)c1cccc(O)c1c2O", "note": "(stereo not drawn) [Setomimycin]", "values": [{"measurement": "Tg_72h_%Growth_Rep1", "setting": "[3]; T. gondii, parasite screen 2 μg/mL, % growth, replicate 1", "value": 70.47, "unit": "%"}, {"measurement": "Tg_72h_%Growth_Rep2", "setting": "[3]; T. gondii, parasite screen 2 μg/mL, % growth, replicate 2", "value": 40.70, "unit": "%"}, {"measurement": "Pf_72h_%Growth_Rep1", "setting": "[1]; P. falciparum, 72 h, parasite screen 2 μg/mL, % growth, replicate 1", "value": 8.25, "unit": "%"}, {"measurement": "Pf_72h_%Growth_Rep2", "setting": "[1]; P. falciparum, 72 h, parasite screen 2 μg/mL, % growth, replicate 2", "value": 3.46, "unit": "%"}, {"measurement": "Pf_120h_%Growth_Rep1", "setting": "[4]; P. falciparum, 120 h, parasite screen 2 μg/mL, % growth, replicate 1", "value": 7.52, "unit": "%"}, {"measurement": "Pf_120h_%Growth_Rep2", "setting": "[4]; P. falciparum, 120 h, parasite screen 2 μg/mL, % growth, replicate 2", "value": 6.30, "unit": "%"}]}, {"molecule": "CCCCCC(=O)OC1C(C)OC(OC2C(C)OC(OC3C(CC=O)CC(C)C(O)C=CC=CCC(C)OC(=O)CC(O)C3OC)C(O)C2N(C)C)CC1(C)O", "note": "(stereo not drawn) [BIA-L1365]", "values": [{"measurement": "Tg_72h_%Growth_Rep1", "setting": "[3]; [6]", "value": 22.41, "unit": "%"}, {"measurement": "Tg_72h_%Growth_Rep2", "setting": "[3]; [7]", "value": 22.70, "unit": "%"}, {"measurement": "Pf_72h_%Growth_Rep1", "setting": "[1]; [8]", "value": 29.67, "unit": "%"}, {"measurement": "Pf_72h_%Growth_Rep2", "setting": "[1]; [9]", "value": 36.72, "unit": "%"}, {"measurement": "Pf_120h_%Growth_Rep1", "setting": "[4]; [10]", "value": 2.62, "unit": "%"}, {"measurement": "Pf_120h_%Growth_Rep2", "setting": "[4]; [11]", "value": 15.42, "unit": "%"}]}, {"molecule": "CC(=O)O[C@H]1CC[C@]2(C)[C@H]3CC[C@]4(C)Oc5oc(C)cc(=O)c5C[C@H]4[C@]3(C)CC[C@H]2C1(C)C", "note": "[Chevalone C]", "values": [{"measurement": "Tg_72h_%Growth_Rep1", "setting": "[3]; T. gondii, screen at 2 μg/mL, replicate 1", "value": 84.01, "unit": "%"}, {"measurement": "Tg_72h_%Growth_Rep2", "setting": "[3]; T. gondii, screen at 2 μg/mL, replicate 2", "value": 91.63, "unit": "%"}, {"measurement": "Pf_72h_%Growth_Rep1", "setting": "[1]; P. falciparum, 72 h, screen at 2 μg/mL, replicate 1", "value": 92.41, "unit": "%"}, {"measurement": "Pf_72h_%Growth_Rep2", "setting": "[1]; P. falciparum, 72 h, screen at 2 μg/mL, replicate 2", "value": 79.15, "unit": "%"}, {"measurement": "Pf_120h_%Growth_Rep1", "setting": "[4]; P. falciparum, 120 h, screen at 2 μg/mL, replicate 1", "value": 145.74, "unit": "%"}, {"measurement": "Pf_120h_%Growth_Rep2", "setting": "[4]; P. falciparum, 120 h, screen at 2 μg/mL, replicate 2", "value": 96.88, "unit": "%"}]}, {"molecule": "CCC(C)C1OC2(CCC1C)CC1CC(CC=C(C)C(OC3CC(OC)C(O)C(C)O3)C(C)C=CC=C3COC4C(O)C(C)=CC(C(=O)O1)C34O)O2", "note": "(stereo not drawn) [BIA-I1150]", "values": [{"measurement": "Tg_72h_%Growth_Rep1", "setting": "[3]; [6]", "value": 134.07, "unit": "%"}, {"measurement": "Tg_72h_%Growth_Rep2", "setting": "[3]; [7]", "value": 88.13, "unit": "%"}, {"measurement": "Pf_72h_%Growth_Rep1", "setting": "[1]; [8]", "value": 84.82, "unit": "%"}, {"measurement": "Pf_72h_%Growth_Rep2", "setting": "[1]; [9]", "value": 14.34, "unit": "%"}, {"measurement": "Pf_120h_%Growth_Rep1", "setting": "[4]; [10]", "value": 91.15, "unit": "%"}, {"measurement": "Pf_120h_%Growth_Rep2", "setting": "[4]; [11]", "value": 112.03, "unit": "%"}]}]}
